According to patent US20070037752A1, “Novel alanyl-amino peptidase inhibitors for functionally influencing different cells and treating immunological, inflammatory, neuronal, and other diseases” (priority 2003, published 2007):
Like-named read-outs stand apart in the source and are kept apart here. One block for each compound: values may come before it. Residues, ends and D or L forms follow the SMILES beside them. *: point of attachment. OBn = c1ccc(CO*)cc1

Biological target: alanyl aminopeptidases (APN) (Homo sapiens, UniProt P15144)
Test: Inhibition of alanyl aminopeptidase enzymatic activity, fluorogenic substrate (Ala)2-rhodamine 110
Type: biochemical
Protocol: The inhibition characteristics measured are referred to as IC-50 values or ID50 values (the latter marked with “*”) for said enzyme. The enzymatic activity was determined by means of the fluorogenic substrate/product (Ala)2-rhodamine 110.

[1] = Table 9, unstarred values, read-out: IC50APN
[2] = Table 4, unstarred values, read-out: IC50APN
[3] = Table 3, unstarred values, read-out: IC50APN
[4] = Table 3, starred values = ID50, read-out: ID50 APN (values marked with *)

alanyl aminopeptidases (APN), sequence (P15144 whole entry, species assumed): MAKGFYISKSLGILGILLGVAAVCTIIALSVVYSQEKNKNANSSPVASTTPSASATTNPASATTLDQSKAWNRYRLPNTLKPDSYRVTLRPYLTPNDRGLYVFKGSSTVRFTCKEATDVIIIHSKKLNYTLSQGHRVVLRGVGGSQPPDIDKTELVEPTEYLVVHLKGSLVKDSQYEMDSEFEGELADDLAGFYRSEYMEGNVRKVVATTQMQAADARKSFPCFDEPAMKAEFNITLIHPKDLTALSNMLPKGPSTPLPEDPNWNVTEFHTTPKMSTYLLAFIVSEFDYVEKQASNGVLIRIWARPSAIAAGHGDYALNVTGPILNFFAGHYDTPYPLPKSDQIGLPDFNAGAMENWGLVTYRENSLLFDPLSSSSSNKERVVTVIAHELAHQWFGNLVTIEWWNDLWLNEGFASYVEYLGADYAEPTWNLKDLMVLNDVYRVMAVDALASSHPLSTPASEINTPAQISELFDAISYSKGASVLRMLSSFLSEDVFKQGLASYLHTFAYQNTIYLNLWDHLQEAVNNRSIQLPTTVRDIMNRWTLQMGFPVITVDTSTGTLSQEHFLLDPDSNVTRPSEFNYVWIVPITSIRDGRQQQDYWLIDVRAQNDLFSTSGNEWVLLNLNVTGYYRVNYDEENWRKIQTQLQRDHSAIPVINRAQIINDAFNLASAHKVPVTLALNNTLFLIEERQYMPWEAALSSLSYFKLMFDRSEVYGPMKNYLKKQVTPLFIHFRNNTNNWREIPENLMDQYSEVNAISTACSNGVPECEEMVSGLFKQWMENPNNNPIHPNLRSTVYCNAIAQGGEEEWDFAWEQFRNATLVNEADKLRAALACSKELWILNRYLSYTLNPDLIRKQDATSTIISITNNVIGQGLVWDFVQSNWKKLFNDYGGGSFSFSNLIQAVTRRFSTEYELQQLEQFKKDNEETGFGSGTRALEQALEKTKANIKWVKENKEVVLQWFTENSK

IC50 [1]: 21.9 µM
SMILES: O=C(/C=C/c1ccco1)Nc1ccc(OCC(=O)N2CCOCC2)cc1 [A9.056]

IC50 [2]: 22.8 µM
SMILES: CCN(CC)c1ccc(/C=N/NC(=O)CNC(=O)/C=C/c2ccco2)cc1 [A4.066]

IC50 [2]: 25.1 µM
SMILES: CCc1ccc(OCC(=O)N/N=C\c2ccco2)c([N+](=O)[O-])c1 [A4.077]

IC50 [3]: 14.3 µM
SMILES: O=C(N/N=C/c1ccco1)c1cc(C2CC2)n[nH]1 [A3.064]

IC50 (Table 12, read-out: IC50APN): 7.5 µM
SMILES: O=C(ON1C(=O)CCC1=O)C1CCC(=O)N1C(=O)OCc1ccccc1 (stereo not shown) [A12.015]

IC50 [3]: 152 µM
SMILES: C/C(=N\NC(=O)c1ccco1)c1ccc(C)o1 [A3.331]

IC50 (Table 12, read-out: IC50APN): 48.4 µM
SMILES: CSCCC(Nc1ncnc2c1oc1ccccc12)C(=O)O (stereo not shown) [A12.060]

IC50 [3]: 12.9 µM
SMILES: Cc1cccc(C)c1NC(=S)NC(=O)c1cccs1 [A3.055]

IC50 [3]: 5 µM
SMILES: COC(=O)c1ccc(-c2ccc(/C=C3\C(=O)N(CCCO)C(=O)C(C#N)=C3C)o2)cc1 [A3.018]

IC50 [2]: 50 µM
SMILES: NC(=S)N/N=C/c1ccco1 [A4.141]

IC50 (Table 10, read-out: IC50APN): 8.1 µM
SMILES: COc1ccc(Cl)cc1C(=O)N/C(=C/c1ccco1)C(=O)N1CC2CC(C1)c1cccc(=O)n1C2 (stereo not shown) [A10.003]

IC50 [3]: 10.6 µM
SMILES: O=C(N/C(=C\c1ccco1)C(=O)N1CCCCC1)c1ccco1 [A3.040]

IC50 (Table 11, read-out: IC50APN): 23.6 µM
SMILES: O=C(Nc1ccc(O)cc1C(=O)O)c1cccc(N2C(=O)c3cccc4c([N+](=O)[O-])ccc(c34)C2=O)c1 [A11.017]

IC50 [1]: 36.8 µM
SMILES: CCCOC(=O)c1cc(-c2ccc(/C=C3\C(=O)NC(=O)C(C#N)=C3C)o2)ccc1Cl [A9.091]

IC50 [1]: 19.2 µM
SMILES: CO/N=C(\c1nonc1N)N1CCN(c2ccc([N+](=O)[O-])cc2Cl)CC1 [A9.045]

IC50 [3]: 48.4 µM
SMILES: CSCCC(Nc1ncnc2c1oc1ccccc12)C(=O)O (stereo not shown) [A3.256]

IC50 [3]: 48.7 µM
SMILES: CCOC(=O)C(NC(=O)c1ccc(OC)cc1)(N1CCCC1=O)C(F)(F)F (stereo not shown) [A3.257]

IC50 [1]: 7.3 µM
SMILES: CC(=O)NC1OCC(O)C(O)C1O (stereo not shown) [A9.014]

IC50 [2]: 27.7 µM
SMILES: CC1SC(N/N=C/c2ccco2)=NC1=O (stereo not shown) [A4.089]

IC50 [1]: 41 µM
SMILES: CCOC(=O)c1cc(-c2ccc(/C=C3\C(=O)N(CCCO)C(=O)C(C#N)=C3C)o2)ccc1Cl [A9.094]

IC50 [2]: 69.3 µM
SMILES: Cc1ccc(S(=O)(=O)N2CCC(C(=O)N/N=C/c3ccco3)CC2)cc1 [A4.160]

IC50 (Table 12, read-out: IC50APN): 8.6 µM
SMILES: CCC(C)C(NC(=O)C(N)CC(=O)OCc1ccccc1)C(=O)NC(Cc1ccccc1)C(=O)OC (stereo not drawn) [A12.016] (H-Asp(OBn)-Ile-Phe-OMe; configuration not given here)

IC50 [3]: 28.7 µM
SMILES: COc1ccccc1-n1c(CCC(=O)O)ccc1-c1cccs1 [A3.177]

IC50 [3]: 36.2 µM
SMILES: Cc1cccc(C(=O)Nc2cccc(C(=O)N/N=C/c3ccc(C)o3)c2)c1 [A3.216b]

IC50 (Table 12, read-out: IC50APN): 11.8 µM
SMILES: CN(C)CCCN1CCN(c2nc(N(C)CC(=O)O)c3ncn(Cc4ccc([N+](=O)[O-])cc4)c3n2)CC1 [A12.023]

IC50 (Table 11, read-out: IC50APN): 8.9 µM
SMILES: N#Cc1cc(N2CC3CC(C2)c2cccc(=O)n2C3)c([N+](=O)[O-])cc1C#N (stereo not shown) [A11.004]

IC50 [3]: 30.5 µM
SMILES: NC(=O)C1CCN(C(=O)/C(=C/c2ccco2)NC(=O)c2ccccc2)CC1 [A3.188]

SMILES: Cc1cccc[n+]1OC(=O)N1CCCCC1 [A8.038]
IC50 (Table 8, starred values = ID50, read-out: ID50 APN (values marked with *)): 96.7 µM

IC50 (Table 10, read-out: IC50APN): 0.7 µM
SMILES: Brc1cc2c(cc1Br)OCCOCCOCCOCCOCCO2 [A10.001]

IC50 [4]: 113 µM
SMILES: Cn1cccc1CC(=O)N/N=C\c1ccco1 [A3.320]

IC50 [2]: 21 µM
SMILES: O=C(COc1ccc2ccccc2c1)N/N=C/c1c(Br)cc(Br)c(O)c1Br [A4.059]

IC50 [2]: 20.3 µM
SMILES: CC(=O)Oc1ccc([N+](=O)[O-])cc1/C=N/NC(=O)COc1cc(C)ccc1C(C)C [A4.055]

IC50 [3]: 28.5 µM
SMILES: CC(/C=C/c1ccco1)=N\NC(=O)CNc1ccc2ccccc2c1 [A3.173]

IC50 [1]: 11 µM
SMILES: Cc1ccc(C(=O)N/C(=C\c2ccco2)C(=O)N2CC3CC(C2)c2cccc(=O)n2C3)cc1 (stereo not shown) [A9.023]

IC50 [3]: 23 µM
SMILES: CN(C)CCCN1CCN(c2nc(N(C)CC(=O)O)c3ncn(Cc4ccc(C(F)(F)F)cc4)c3n2)CC1 [A3.137]

IC50 [4]: 103 µM
SMILES: C#CCN1C(c2cnccn2)=NC(CC(C)C)C1C(=O)Nc1c(C)cccc1C (stereo not shown) [A3.319]

IC50 [3]: 23.6 µM
SMILES: O=C(N/N=C/c1cc(Br)c(O)c(Br)c1O)/C(=C\c1ccc2c(c1)OCO2)NC(=O)c1ccccc1 [A3.143]

IC50 (Table 5, unstarred values, read-out: IC50APN): 77.3 µM
SMILES: Oc1ccc(Cl)cc1/N=C/c1ccc(-c2ccc(F)cc2)o1 [A5.005]

IC50 [3]: 23.8 µM
SMILES: CCCOC(=O)c1cc(-c2ccc(/C=C3\C(=O)N(CCCO)C(=O)C(C#N)=C3C)o2)ccc1Cl [A3.146]

IC50 (Table 12, read-out: IC50APN): 51.2 µM
SMILES: CSCCC(NC(=O)c1ccc(C(F)(F)F)cc1)C(=O)NO (stereo not shown) [A12.061]

IC50 (Table 12, read-out: IC50APN): 55 µM
SMILES: Cc1ccc(/C=C(\NC(=O)c2ccccc2)C(=O)NCCN2CCOCC2)o1 [A12.063]

IC50 (Table 11, read-out: IC50APN): 10.7 µM
SMILES: O=C(N/N=C(/CC(=O)c1cccs1)C(F)(F)F)c1cccc([N+](=O)[O-])c1 [A11.005]

IC50 [2]: 32.5 µM
SMILES: O=C(N/N=C/c1ccco1)c1ccc(NC(=O)c2ccccc2Cl)cc1 [A4.103]

IC50 (Table 1, unstarred values, read-out: IC50APN): 25.2 µM
SMILES: CC(CCc1ccccc1)C(=O)NO (stereo not shown) [A1.013]

IC50 [2]: 44.2 µM
SMILES: Cc1ccc(/C=N/NC(=O)c2ccc(N3CCCC3=O)cc2)o1 [A4.129]

IC50 [2]: 48.2 µM
SMILES: Cc1cc(C(=O)N/N=C/c2ccco2)[nH]n1 [A4.139]
